Source: patent US6679922B1, “Pesticide protective articles” (priority 1998, dated 2004)
“And” between values parts separate entries of the source, which are not always exact repeats. Equal values may be shown once.

Columns and labels:
[1] = Pesticide reduction at various pesticide/chlorine ratios; conditions: Pesticide/Chlorine Ratio 1:4
Source text: In certain aspects, the concentration of the pesticide (e.g., methomyl) that was exposed to the fabric was proportional to the percent reduction of the pesticide. Without being bound by a particular theory, it is believed that the pesticide/halamine ratio is more critical to reduction than the actual contact time of the pesticide with the fabric. A pesticide to halamine ratio of about 10:1 to about 1:10 is suitable for the present methods, preferably, a ratio of about 5:1 to about 1:5 is used and, more preferably, a ratio of about […] is used.

[2] = Detoxification of pesticides on cotton/polyester fabrics treated with DMDMH and chlorine bleach, percentage reduction by GC; conditions: 6% DMDMH, 5 min contact
Procedure: Polyester/cotton fabrics were washed in a domestic washing machine at 50° C. prior to the actual treatment of the functional compounds.
The grafting of hydantoin ring onto the cotton/polyester fabrics was carried out using a wet finishing process. The weighed fabrics were submerged into an aqueous 6% (w/w) DMDMH solution for 5 min. and then wringed through a padder to secure a wet pickup of 70-100% through a 2 dip-2 nip cycle. These wet fabrics were then oven-dried at 85° C. for 5 min. and cured at 150° C. for 5 min. Following this, the fabrics were washed in water at 50° C. for 30 min. to remove any excess chemicals on the surface of the fabrics.
After the wet finishing process, the treated fabrics were bleached with solutions containing 0.01% and 0.1% (w/v) active chlorine content. The treated fabrics were submerged into aqueous bleach solution at one of the specified concentrations at 25° C. for 15 min. Then, the fabrics were air dried and stored at standard condition (25° C., 65% relative humidity). The chemically finished fabrics were then cut into 3×3 inches square swatches for exposure to pesticides in the subsequent testing.
Methomyl and aldicarb were dissolved in methanol at three different concentrations: 250, 500 and 1000 ppm. One mL of one of these pesticide solutions was directly loaded onto a fabric swatch. A contact time of 5 min. was allowed before the exposed fabric was extracted in organic solvent for detoxification assessment and degradation analysis. Fabrics that were not treated with DMDMH and bleach were also used as control samples.
The extraction of the exposed swatches was done by soaking a swatch into an initial volume of 50 mL ethyl acetate for 15 min. with vigorous agitation. The extraction was repeated with another 50 mL of ethyl acetate; the combined 100 mL of the extracted solvent was reduced to 2 mL in volume by rotor-evaporation under partial vacuum at 40° C. To this 2-mL sample, 1 μL of 2-ethyl-5-methyl pyridine was added as an internal standard for quantitation during the chromatographic analysis. After which, 1 μL of the extracted sample was injected into a gas chromatograph.
Gas chromatography was performed on a Hewlett Packard 5890 series II GC, equipped with a nitrogen-phosphorus detector (NPD), using a 15 m×0.25 mm I.D. DB-1 column, 0.25 μm film (J&W Co.). The temperature program was initially set at 100° C. for 3 min., raised at a rate of 7° C./min. to 250° C. and held for 5 min. The injector and detector were set at 250° C. and 280° C. respectively. Helium was used as the carrier gas at a flow rate of 0.84 mL/min; hydrogen flow rate was 2.98 mL/min; nitrogen flow rate was 29.16 mL/min. A split injection was used at a split ratio of 25:1. The responses of the resulting peak areas and relative peak areas were integrated and recorded using a HP 3396 II integrator. For each sample, at least three or more repetitions at each condition were carried out.
Using the materials and methods sets forth above, three different concentrations of methomyl were detoxified by halamine structures on the fabrics. Relative peak area response factors (peak area response of pesticide divided by peak area response of internal standard) of the control fabrics were used to determine the original amount of pesticide on the fabrics at 0% reduction. […] After this difference was divided by the original amount, it was expressed as the percentage reduction of pesticide at those various concentrations.

[3] = cited from earlier work
[4] = chlorine/methomyl ratio of 10 to 1; cited from earlier work
[5] = tested on: male rats; conditions: cited from earlier work

CNC(=O)Oc1cccc2ccccc12 [Carbaryl]
Pesticide Reduction (%) [1]: 8.02%

CNC(=O)Oc1cccc2c1OC(C)(C)C2 [Carbofuran]
Pesticide Reduction (%) [1]: 13.82%

CNC(=O)ON=C(C)SC [Methomyl, S-methyl N-(methyl carbamoyloxy) thioacetimidatel]
percentage reduction of pesticide ([2]; 250 ppm pesticide, 0.01% active chlorine treatment): 9.35% and 9.4%
percentage reduction of pesticide ([2]; 250 ppm pesticide, 0.1% active chlorine treatment): 19.9%
percentage reduction of pesticide ([2]; 500 ppm pesticide, 0.1% active chlorine treatment): 18.6%
percentage reduction of pesticide ([2]; 1000 ppm pesticide, 0.01% active chlorine treatment): 4.43% and 4.4%
percentage reduction of pesticide ([2]; 1000 ppm pesticide, 0.1% active chlorine treatment): 11.63% and 11.6%
Pesticide Reduction (%) [1]: 79.52%
Vapor Pressure mm Hg (25-30° C.) [3]: 5 × 10^−5 mm Hg
disappearance in aqueous solution [4]: disappear rapidly
Toxicity, mg/kg (LD50, male rats) [5]: 21 mg/kg
